How the values were obtained:
human fibroblasts = assay: transcriptomic study on human fibroblasts cultivated in vitro in the absence or presence of the compounds; format: cell-based; conditions: cellular renewal
Excerpt: The biological activities of β-(1,3)-glucuronan compounds or of a mixture of β-(1,3)-glucoglucuronan compounds were screened by an original method of molecular biology (transcriptomic technique) and then detected by methodologies used conventionally in cosmetology.
This adipokine produced locally in the adipose tissue inhibits the activity of the enzyme lipoprotein lipase (LPL) thus preventing the transfer of fatty acids from the lipoproteins to the adipocytes, thus greatly reducing lipogenesis. At the same time, this adipokine activates the enzyme ATGL (adipose triglyceride lipase), present in the adipocytes, thus greatly increasing lipolysis and the release of fatty acids from the adipocytes.
In fact, the transitory induction (under the control of TFPI2 and of PDGFD) of the metalloproteinases (MMP) and the transitory inhibition (under the control of TFPI2) of HAPLN1, permit transitory, localized destabilization of the stressed site (requiring cicatrization) of the extracellular matrix, mainly by catabolic action on the collagen fibers. […]

adipocytes = assay: in-vitro study on adipocytes: density of fatty acids stored as triglycerides in the lipid vacuoles; format: cell-based; conditions: concentration of 0.5%
[1] = clinical study on human volunteers, daily topical application of cream (cellulite, orange-peel skin); format: in vivo; conditions: cream containing 3%, daily topical application for 30 days, placebo 27%
Excerpt: The orange-peel skin effect is reduced in 53% of the volunteers (against 27% in the group of volunteers treated with a placebo).

[2] = chelation and sequestration of cationic ions, investigated by atomic absorption; format: physicochemical; conditions: Na+, Cu+, Cu2+, Ca2+, Mg2+, Zn2+, with stirring, compounds recovered and washed
Excerpt: The β-(1,3)-glucuronan compounds or the mixture of β-(1,3)-glucoglucuronan compounds are polyanionic molecules capable of chelating and of sequestering mono- and divalent cationic ions.

chelating and sequestering of mono- and divalent cationic ions [2]: chelate and sequester
Substance: β-(1,3)-D-polyglucuronic acid [β-(1,3)-glucuronan compound]
expression of TFPI2 (human fibroblasts): overexpressed
expression of the genes EGR1, PTGS2, PDGFD, NPTX1 (human fibroblasts): overexpression
decrease in the density of fatty acids stored in the form of triglycerides in the lipid vacuoles of the adipocytes (adipocytes): ~25%
volunteers in whom the orange-peel skin effect is reduced [1]: 53%

— patent publication US8455460B2, “Cosmetic composition containing one or more compounds of the β-(1,3)-glucuronan or β-(1,3)-glucoglucuronan type” (Greentech, priority 2007, dated 2013)
